# Measured values taken from patent US12139520B2 (priority 2020, dated 2024).
# Bridge positions count the residues as written; N and C are the ends. Square brackets hold non-standard residues; d marks the D form. Peptide text beside a SMILES is read from it. Hyp = O=C(O)[C@@H]1C[C@@H](O)CN1; Cit = NC(=O)NCCC[C@H](N)C(=O)O
# Key:
# hAMY3 receptor = molecular target: T1, hAMY3 receptor (Homo sapiens, UniProt O60896+P30988); experiment: cAMP assay for in vitro receptor activation, hAMY3-R; format: cell-based; conditions: cAMP assay, hAMY3 receptor; read-out: hAMY3R EC50
# T1 sequence (P30988 25-474): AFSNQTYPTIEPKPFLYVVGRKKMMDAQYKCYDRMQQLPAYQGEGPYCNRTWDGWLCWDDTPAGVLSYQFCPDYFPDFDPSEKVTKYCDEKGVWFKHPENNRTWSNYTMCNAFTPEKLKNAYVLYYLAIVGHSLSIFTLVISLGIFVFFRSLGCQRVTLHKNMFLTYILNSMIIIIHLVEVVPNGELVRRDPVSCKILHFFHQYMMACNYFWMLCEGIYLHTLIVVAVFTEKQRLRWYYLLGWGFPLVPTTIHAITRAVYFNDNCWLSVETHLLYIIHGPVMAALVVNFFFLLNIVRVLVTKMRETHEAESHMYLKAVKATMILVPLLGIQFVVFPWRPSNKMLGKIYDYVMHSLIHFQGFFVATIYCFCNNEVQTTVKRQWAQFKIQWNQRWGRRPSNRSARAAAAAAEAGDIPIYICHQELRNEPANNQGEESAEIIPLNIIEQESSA
# T1 sequence (O60896 24-148 partner): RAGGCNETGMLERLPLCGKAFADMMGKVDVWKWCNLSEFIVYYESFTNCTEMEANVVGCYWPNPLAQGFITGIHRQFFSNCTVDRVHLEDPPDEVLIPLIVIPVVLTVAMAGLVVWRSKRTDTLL
# How it was run: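 Thawed cells from a sub-cloned monoclonal hAMY3-overexpressing line are plated in DPBS containing 0.05% casein and 0.5 mM IBMX. Test compounds are added immediately at graded doses for 30 min at room temperature. Reagents for cAMP detection are then added, and TR-FRET is recorded after one hour.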
# hAM1 receptor = hAM1 receptor (Homo sapiens, UniProt O60895+Q16602); experiment: cAMP assay for in vitro receptor activation, hAM1-R; format: cell-based; conditions: cAMP assay, hAM1 receptor; read-out: hAM1R EC50
# How it was run: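 cAMP accumulation was measured in a monoclonal cell line stably overexpressing the hAM1 receptor. Frozen aliquots were thawed and plated at 8000 cells/well in DPBS containing 0.05% casein and 0.5 mM IBMX.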
# [1] = Physical stability of peptide analogues (Thioflavin T fibrillation); format: physicochemical; conditions: maximum ThT signal normalized between hAMY maximum and buffer background; 40° C., shaking, four days; pH 7 per table title
# How it was run: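 Samples are stressed at 40 °C for four days, being shaken at 700 rpm before each 10-min fluorescence reading of 4 μM Thioflavin T. Buffers were pH 4 acetate or pH 7 phosphate. Reported values are smoothed maximum ThT signals as a percentage of the hAMY-to-background range.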
# hAM1 receptor, sequence (Q16602 23-461): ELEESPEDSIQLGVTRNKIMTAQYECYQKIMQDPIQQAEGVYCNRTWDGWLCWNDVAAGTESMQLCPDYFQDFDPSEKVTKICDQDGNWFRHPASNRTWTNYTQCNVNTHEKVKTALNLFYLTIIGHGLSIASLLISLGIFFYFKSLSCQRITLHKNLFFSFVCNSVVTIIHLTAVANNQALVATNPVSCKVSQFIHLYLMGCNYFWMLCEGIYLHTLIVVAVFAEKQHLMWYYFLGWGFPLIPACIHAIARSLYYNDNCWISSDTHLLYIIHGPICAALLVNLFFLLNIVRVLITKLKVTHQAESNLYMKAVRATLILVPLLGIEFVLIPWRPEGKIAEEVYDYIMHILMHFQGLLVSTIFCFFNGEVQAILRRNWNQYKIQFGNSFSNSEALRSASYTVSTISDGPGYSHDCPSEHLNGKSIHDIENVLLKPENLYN
# hAM1 receptor, sequence (O60895 43-175 partner): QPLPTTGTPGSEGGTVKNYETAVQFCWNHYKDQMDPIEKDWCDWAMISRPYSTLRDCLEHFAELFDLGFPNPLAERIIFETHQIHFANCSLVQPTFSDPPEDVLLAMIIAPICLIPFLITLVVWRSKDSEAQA
Compound,EC50 (hAMY3 receptor),EC50 (hAM1 receptor),Max ThT signal (%) [1]
CC[C@H](C)[C@H](NC(=O)[C@H](CCC(N)=O)NC(=O)[C@H](Cc1c[nH]cn1)NC(=O)[C@H](C)NC(=O)[C@H](CC(C)C)NC(=O)[C@H](CCCNC(N)=O)NC(=O)[C@H](CCC(N)=O)NC(=O)[C@@H](NC(=O)[C@@H](NC(=O)[C@@H]1CSSC[C@H](NC(=O)[C@@H](N)CCCCN)C(=O)N[C@@H](CC(N)=O)C(=O)N[C@@H]([C@@H](C)O)C(=O)N[C@@H](C)C(=O)N[C@@H]([C@@H](C)O)C(=O)N1)[C@@H](C)O)C(C)C)C(=O)N[C@@H](Cc1ccc(O)cc1)C(=O)N[C@@H](CCC(N)=O)C(=O)N[C@@H](Cc1ccccc1)C(=O)N[C@H](C(=O)N[C@@H](CC(=O)O)C(=O)N[C@@H](CCCCN)C(=O)N[C@@H](C)C(=O)N[C@@H](CCCCN)C(=O)N[C@@H](CC(=O)O)C(=O)N[C@@H](CC(N)=O)C(=O)N[C@H](C(=O)N[C@@H](C)C(=O)N1CCC[C@H]1C(=O)N1CCC[C@H]1C(=O)N[C@H](C(=O)N[C@@H](CC(N)=O)C(=O)N[C@H](C(=O)NCC(=O)N[C@@H](CO)C(=O)N[C@@H](CC(N)=O)C(=O)NCC(=O)N1C[C@H](O)C[C@H]1C(N)=O)C(C)C)[C@@H](C)O)C(C)C)[C@@H](C)O [compound 258] (H-KCNTATCTVQ[Cit]LAHQIYQFTDKAKDNVAPPTNVGSNG[Hyp]-NH2; disulfide 2-7; N-terminus assumed),0.01 nM,> 5000 nM,32.700%
CC[C@H](C)[C@H](NC(=O)[C@H](CCC(N)=O)NC(=O)[C@H](Cc1c[nH]cn1)NC(=O)[C@H](C)NC(=O)[C@H](CC(C)C)NC(=O)[C@H](CCCNC(=N)N)NC(=O)[C@H](CCC(N)=O)NC(=O)[C@@H](NC(=O)[C@@H](NC(=O)[C@@H]1CSSC[C@H](NC(=O)[C@@H](N)CCCCN)C(=O)N[C@@H](CC(N)=O)C(=O)N[C@@H]([C@@H](C)O)C(=O)N[C@@H](C)C(=O)N[C@@H]([C@@H](C)O)C(=O)N1)[C@@H](C)O)C(C)C)C(=O)N[C@@H](Cc1ccc(O)cc1)C(=O)N[C@@H](CCC(N)=O)C(=O)N[C@@H](Cc1ccccc1)C(=O)N[C@H](C(=O)N[C@@H](CC(=O)O)C(=O)N[C@@H](CCCCN)C(=O)N[C@@H](CC(=O)O)C(=O)N[C@@H](CCCCN)C(=O)N[C@@H](CC(=O)O)C(=O)N[C@@H](CC(N)=O)C(=O)N[C@H](C(=O)N[C@@H](C)C(=O)N1CCC[C@H]1C(=O)N[C@@H](CCCNC(=N)N)C(=O)N[C@H](C(=O)N[C@@H](CCCCN)C(=O)N[C@H](C(=O)NCC(=O)N[C@@H](CO)C(=O)N[C@@H](CC(N)=O)C(=O)NCC(=O)N1C[C@H](O)C[C@H]1C(N)=O)C(C)C)[C@@H](C)O)C(C)C)[C@@H](C)O [compound 20] (H-KCNTATCTVQRLAHQIYQFTDKDKDNVAPRTKVGSNG[Hyp]-NH2; disulfide 2-7; N-terminus assumed),0.008 nM,> 5000 nM,9.100%
CC[C@H](C)[C@H](NC(=O)[C@H](CCC(N)=O)NC(=O)[C@H](Cc1c[nH]cn1)NC(=O)[C@H](C)NC(=O)[C@H](CC(C)C)NC(=O)[C@H](CCCNC(=N)N)NC(=O)[C@H](CCC(N)=O)NC(=O)[C@@H](NC(=O)[C@@H](NC(=O)[C@@H]1CSSC[C@H](NC(=O)[C@@H](N)CCCCN)C(=O)N[C@@H](CC(N)=O)C(=O)N[C@@H]([C@@H](C)O)C(=O)N[C@@H](C)C(=O)N[C@@H]([C@@H](C)O)C(=O)N1)[C@@H](C)O)C(C)C)C(=O)N[C@@H](Cc1ccc(O)cc1)C(=O)N[C@@H](CCC(N)=O)C(=O)N[C@@H](Cc1ccccc1)C(=O)N[C@H](C(=O)N[C@@H](CC(=O)O)C(=O)N[C@@H](CCCCN)C(=O)N[C@@H](CC(=O)O)C(=O)N[C@@H](CCCCN)C(=O)N[C@@H](C)C(=O)N[C@@H](CC(N)=O)C(=O)N[C@H](C(=O)N[C@@H](C)C(=O)N1CCC[C@H]1C(=O)N1CCC[C@H]1C(=O)N[C@H](C(=O)N[C@@H](CC(N)=O)C(=O)N[C@H](C(=O)NCC(=O)N[C@@H](CO)C(=O)N[C@@H](CC(N)=O)C(=O)NCC(=O)N1C[C@H](O)C[C@H]1C(N)=O)C(C)C)[C@@H](C)O)C(C)C)[C@@H](C)O [compound 26] (H-KCNTATCTVQRLAHQIYQFTDKDKANVAPPTNVGSNG[Hyp]-NH2; disulfide 2-7; N-terminus assumed),0.008 nM,> 5000 nM,0.000%

# Next, values leading:
EC50 (hAMY3 receptor),EC50 (hAM1 receptor),Max ThT signal (%) [1],Compound
0.098 nM,> 5000 nM,4.100%,CC[C@H](C)[C@H](NC(=O)[C@H](CCC(N)=O)NC(=O)[C@H](Cc1c[nH]cn1)NC(=O)[C@H](C)NC(=O)[C@H](CC(C)C)NC(=O)[C@H](CCCNC(=N)N)NC(=O)[C@H](CCC(N)=O)NC(=O)[C@@H](NC(=O)[C@@H](NC(=O)[C@@H]1CSSC[C@H](NC(=O)CN)C(=O)N[C@@H](CCCNC(=N)N)C(=O)N[C@@H](CCSC)C(=O)NCC(=O)N[C@@H]([C@@H](C)O)C(=O)N1)[C@@H](C)O)C(C)C)C(=O)N[C@@H](Cc1ccc(O)cc1)C(=O)N[C@@H](CCC(N)=O)C(=O)N[C@@H](Cc1ccccc1)C(=O)N[C@H](C(=O)N[C@@H](CC(N)=O)C(=O)N[C@@H](CCCCN)C(=O)N[C@@H](CC(=O)O)C(=O)N[C@@H](CCCCN)C(=O)N[C@@H](CC(=O)O)C(=O)N[C@@H](CC(N)=O)C(=O)N[C@H](C(=O)N[C@@H](C)C(=O)N1CCC[C@H]1C(=O)N[C@@H](CCCNC(=N)N)C(=O)N[C@@H](CO)C(=O)N[C@@H](CCCCN)C(=O)N[C@H](C(=O)N[C@@H](CO)C(=O)N1CCC[C@H]1C(=O)N[C@@H](CCC(N)=O)C(=O)N[C@H](C(=O)N1C[C@H](O)C[C@H]1C(N)=O)[C@@H](C)O)[C@@H](C)CC)C(C)C)[C@@H](C)O [compound 192] (H-GCRMGTCTVQRLAHQIYQFTNKDKDNVAPRSKISPQT[Hyp]-NH2; disulfide 2-7; N-terminus assumed)
0.184 nM,> 5000 nM,11.700%,CC[C@H](C)[C@H](NC(=O)[C@H](CCC(N)=O)NC(=O)[C@H](Cc1c[nH]cn1)NC(=O)[C@H](C)NC(=O)[C@H](CC(C)C)NC(=O)[C@H](CCCNC(=N)N)NC(=O)[C@H](CCC(N)=O)NC(=O)[C@@H](NC(=O)[C@@H](NC(=O)[C@@H]1CSSC[C@H](NC(=O)CN)C(=O)N[C@@H](CCCNC(=N)N)C(=O)N[C@@H](CCSC)C(=O)NCC(=O)N[C@@H]([C@@H](C)O)C(=O)N1)[C@@H](C)O)C(C)C)C(=O)N[C@@H](Cc1ccc(O)cc1)C(=O)N[C@@H](CCC(N)=O)C(=O)N[C@@H](Cc1ccccc1)C(=O)N[C@H](C(=O)N[C@@H](CC(=O)O)C(=O)N[C@@H](CCCCN)C(=O)N[C@@H](CC(=O)O)C(=O)N[C@@H](CCCCN)C(=O)N[C@@H](CC(=O)O)C(=O)N[C@@H](CC(N)=O)C(=O)N[C@H](C(=O)N[C@@H](C)C(=O)N1CCC[C@H]1C(=O)N[C@@H](CO)C(=O)N[C@@H](CO)C(=O)N[C@@H](CCCCN)C(=O)N[C@H](C(=O)N[C@@H](CO)C(=O)N1CCC[C@H]1C(=O)N[C@@H](CCC(N)=O)C(=O)N[C@H](C(=O)N1C[C@H](O)C[C@H]1C(N)=O)[C@@H](C)O)[C@@H](C)CC)C(C)C)[C@@H](C)O [compound 222] (H-GCRMGTCTVQRLAHQIYQFTDKDKDNVAPSSKISPQT[Hyp]-NH2; disulfide 2-7; N-terminus assumed)
